Test results from ChEMBL document CHEMBL1201862, “PubChem BioAssay data set” (2004).
Activity calls are given as the source filed them.

Tests used:
Type in all cases: functional
[1] = target: Testis-specific serine/threonine-protein kinase 1 (Homo sapiens, UniProt Q9BXA7)
Insulin receptor = Insulin receptor (Homo sapiens, UniProt P06213);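 further: insulin receptor kinase tested as one member of a kinome-wide kinase panel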
[2] = target: Rho-associated protein kinase 1 (Homo sapiens, UniProt Q13464);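 further: measured within a broad kinome-wide panel profiling many kinases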
[3] = target: Mitogen-activated protein kinase 8 (Homo sapiens, UniProt P45983);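 further: value comes from one member of a kinome-wide kinase profiling panel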
[4] = target: cAMP-dependent protein kinase catalytic subunit alpha (Homo sapiens, UniProt P17612)
[5] = target: RAC-gamma serine/threonine-protein kinase (Homo sapiens, UniProt Q9Y243)
[6] = target: Dual specificity protein kinase CLK2 (Homo sapiens, UniProt P49760)
[7] = target: MAP kinase-interacting serine/threonine-protein kinase 2 (Homo sapiens, UniProt Q9HBH9)
Sequence of MAP kinase-interacting serine/threonine-protein kinase 2 (Q9HBH9 whole entry): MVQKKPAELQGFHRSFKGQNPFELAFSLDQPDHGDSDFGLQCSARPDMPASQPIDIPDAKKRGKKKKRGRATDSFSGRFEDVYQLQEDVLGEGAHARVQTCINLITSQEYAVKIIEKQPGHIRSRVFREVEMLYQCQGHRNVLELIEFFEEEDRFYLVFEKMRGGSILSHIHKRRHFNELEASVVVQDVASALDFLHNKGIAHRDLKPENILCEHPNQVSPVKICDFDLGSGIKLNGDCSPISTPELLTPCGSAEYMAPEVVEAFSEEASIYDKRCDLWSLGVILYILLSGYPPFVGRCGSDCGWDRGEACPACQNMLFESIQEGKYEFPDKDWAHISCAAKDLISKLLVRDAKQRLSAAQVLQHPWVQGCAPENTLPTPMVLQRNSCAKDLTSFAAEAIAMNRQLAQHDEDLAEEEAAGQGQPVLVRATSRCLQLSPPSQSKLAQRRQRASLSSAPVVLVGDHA

[8] = target: Mast/stem cell growth factor receptor Kit (Homo sapiens, UniProt P10721);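 further: KIT entry within a kinase panel assay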
[9] = target: Receptor-type tyrosine-protein kinase FLT3 (Homo sapiens, UniProt P36888);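 further: FLT3 was tested as one member of a kinome-wide kinase panel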
[10] = target: 5'-AMP-activated protein kinase catalytic subunit alpha-1 (Homo sapiens, UniProt Q13131)
[11] = target: cGMP-dependent protein kinase 1 (Homo sapiens, UniProt Q13976);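 further: value from a kinome panel screen with PRKG1 as the panel member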
[12] = target: Tyrosine-protein kinase Srms (Homo sapiens, UniProt Q9H3Y6);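 further: SRMS measured as one member of a kinome-wide kinase profiling panel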
SRSF protein kinase 1 = SRSF protein kinase 1 (Homo sapiens, UniProt Q96SB4);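 further: measured as one member of a kinome-wide kinase profiling panel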
[13] = target: Serine/threonine-protein kinase BRSK1 (Homo sapiens, UniProt Q8TDC3);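 further: measured within a kinome-wide kinase panel, with the target listed as KIAA1811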
Ephrin type-A receptor 2 = Ephrin type-A receptor 2 (Homo sapiens, UniProt P29317);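 further: EPHA2 tested as one member of a kinome-wide kinase panel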
[14] = target: Megakaryocyte-associated tyrosine-protein kinase (Homo sapiens, UniProt P42679);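 further: affinity measured as one member of a kinase panel (Navigating the Kinome) against MATK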
[15] = target: Calcium/calmodulin-dependent protein kinase type II subunit gamma (Homo sapiens, UniProt Q13555)
[16] = target: Serine/threonine-protein kinase pim-2 (Homo sapiens, UniProt Q9P1W9);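 further: value comes from a broad kinase panel profiling study in which PIM2 was one of the panel members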
Misshapen-like kinase 1 = Misshapen-like kinase 1 (Homo sapiens, UniProt Q8N4C8);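 further: kinome panel screen with MINK as the panel member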
Sequence of Misshapen-like kinase 1 (Q8N4C8 whole entry): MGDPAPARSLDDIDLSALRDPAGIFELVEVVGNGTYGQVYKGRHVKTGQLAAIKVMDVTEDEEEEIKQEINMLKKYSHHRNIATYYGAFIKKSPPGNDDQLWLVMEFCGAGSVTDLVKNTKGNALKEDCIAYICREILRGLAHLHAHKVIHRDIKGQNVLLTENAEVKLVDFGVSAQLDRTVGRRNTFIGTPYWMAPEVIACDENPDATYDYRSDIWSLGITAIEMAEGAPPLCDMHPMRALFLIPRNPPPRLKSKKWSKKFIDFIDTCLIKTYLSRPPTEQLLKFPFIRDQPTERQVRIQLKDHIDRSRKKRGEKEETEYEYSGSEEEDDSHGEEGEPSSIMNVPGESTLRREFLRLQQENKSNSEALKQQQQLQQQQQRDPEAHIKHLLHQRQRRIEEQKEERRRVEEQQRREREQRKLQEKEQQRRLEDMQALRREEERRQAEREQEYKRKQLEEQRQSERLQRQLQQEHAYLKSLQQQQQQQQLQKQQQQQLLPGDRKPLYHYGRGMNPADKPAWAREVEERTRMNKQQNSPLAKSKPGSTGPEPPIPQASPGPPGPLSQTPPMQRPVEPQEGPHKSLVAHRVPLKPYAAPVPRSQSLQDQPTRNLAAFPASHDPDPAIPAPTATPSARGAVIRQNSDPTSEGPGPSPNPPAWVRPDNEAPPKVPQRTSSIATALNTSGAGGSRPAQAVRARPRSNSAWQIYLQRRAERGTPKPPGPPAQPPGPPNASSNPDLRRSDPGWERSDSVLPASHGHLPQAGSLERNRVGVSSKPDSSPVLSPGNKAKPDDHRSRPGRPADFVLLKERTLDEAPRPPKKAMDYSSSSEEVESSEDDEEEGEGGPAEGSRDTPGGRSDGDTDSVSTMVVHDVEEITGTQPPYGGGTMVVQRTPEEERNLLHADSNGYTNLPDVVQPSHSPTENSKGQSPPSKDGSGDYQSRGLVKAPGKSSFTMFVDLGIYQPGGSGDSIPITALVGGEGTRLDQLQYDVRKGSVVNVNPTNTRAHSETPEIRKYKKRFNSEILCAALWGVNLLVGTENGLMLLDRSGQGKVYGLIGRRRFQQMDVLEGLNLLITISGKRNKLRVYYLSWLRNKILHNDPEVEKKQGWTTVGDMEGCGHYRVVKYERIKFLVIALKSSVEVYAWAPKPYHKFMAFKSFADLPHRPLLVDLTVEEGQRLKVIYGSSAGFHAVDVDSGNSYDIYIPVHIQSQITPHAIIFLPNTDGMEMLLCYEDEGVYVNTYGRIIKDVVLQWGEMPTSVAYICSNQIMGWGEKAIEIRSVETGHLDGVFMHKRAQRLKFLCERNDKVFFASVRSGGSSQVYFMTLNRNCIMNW

[17] = target: Proto-oncogene tyrosine-protein kinase ROS (Homo sapiens, UniProt P08922);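 further: ROS1 tested as one member of a kinome-wide kinase panel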
[18] = target: Protein-tyrosine kinase 6 (Homo sapiens, UniProt Q13882)
[19] = target: Tyrosine-protein kinase Lyn (Homo sapiens, UniProt P07948);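 further: lyn as one member of a kinase panel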
[20] = target: Non-receptor tyrosine-protein kinase TYK2 (Homo sapiens, UniProt P29597)
[21] = target: Tyrosine-protein kinase JAK2 (Homo sapiens, UniProt O60674);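 further: JAK2 tested as one member of a kinase panel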
[22] = target: Serine/threonine-protein kinase pim-1 (Homo sapiens, UniProt P11309)
Sequence of Serine/threonine-protein kinase pim-1 (P11309 whole entry): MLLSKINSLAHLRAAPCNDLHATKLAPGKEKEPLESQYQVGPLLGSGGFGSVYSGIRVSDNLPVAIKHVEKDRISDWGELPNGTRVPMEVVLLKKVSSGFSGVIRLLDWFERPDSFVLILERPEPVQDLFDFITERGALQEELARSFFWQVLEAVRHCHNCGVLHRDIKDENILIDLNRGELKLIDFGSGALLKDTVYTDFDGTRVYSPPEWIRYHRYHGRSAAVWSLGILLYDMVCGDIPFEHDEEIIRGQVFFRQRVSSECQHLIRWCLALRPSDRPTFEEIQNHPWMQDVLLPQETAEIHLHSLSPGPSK

[23] = target: High affinity nerve growth factor receptor (Homo sapiens, UniProt P04629);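 further: NTRK1 tested as one member of a kinome-wide profiling panel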
Sequence of High affinity nerve growth factor receptor (P04629 whole entry): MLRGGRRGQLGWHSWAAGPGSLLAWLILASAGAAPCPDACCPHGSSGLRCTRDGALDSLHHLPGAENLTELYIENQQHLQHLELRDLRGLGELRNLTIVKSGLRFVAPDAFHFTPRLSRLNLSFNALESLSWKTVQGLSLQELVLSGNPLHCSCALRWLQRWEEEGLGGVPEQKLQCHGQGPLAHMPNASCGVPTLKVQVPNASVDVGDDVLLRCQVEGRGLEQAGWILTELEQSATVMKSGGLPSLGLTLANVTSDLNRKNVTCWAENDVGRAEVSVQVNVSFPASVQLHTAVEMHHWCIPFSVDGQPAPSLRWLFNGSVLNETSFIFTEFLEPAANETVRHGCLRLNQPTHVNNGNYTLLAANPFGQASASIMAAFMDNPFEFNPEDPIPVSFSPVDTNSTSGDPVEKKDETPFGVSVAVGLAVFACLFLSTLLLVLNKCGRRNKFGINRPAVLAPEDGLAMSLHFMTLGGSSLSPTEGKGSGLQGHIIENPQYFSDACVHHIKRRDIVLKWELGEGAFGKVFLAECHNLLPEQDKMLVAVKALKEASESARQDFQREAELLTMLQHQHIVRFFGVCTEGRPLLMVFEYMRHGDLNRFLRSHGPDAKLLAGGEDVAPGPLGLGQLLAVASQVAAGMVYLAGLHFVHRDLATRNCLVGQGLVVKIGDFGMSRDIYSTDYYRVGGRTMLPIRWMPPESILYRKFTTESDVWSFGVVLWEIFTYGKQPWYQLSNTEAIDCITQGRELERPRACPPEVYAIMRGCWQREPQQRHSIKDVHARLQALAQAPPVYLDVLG

[24] = target: Tyrosine-protein kinase Blk (Homo sapiens, UniProt P51451);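 further: obtained as one member of a kinome-wide kinase assay panel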
LIM domain kinase 1 = LIM domain kinase 1 (Homo sapiens, UniProt P53667); test: Navigating the Kinome. Panel member name: LIMK1
[25] = target: Insulin-like growth factor 1 receptor (Homo sapiens, UniProt P08069); test: Navigating the Kinome. Panel member name: IGF1R
[26] = target: Cyclin-dependent kinase 1 (Homo sapiens, UniProt P06493);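 further: Kinome-wide panel profiling, with the target listed as panel member CDC2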
[27] = target: Tyrosine-protein kinase JAK3 (Homo sapiens, UniProt P52333)
[28] = target: Fibroblast growth factor receptor 1 (Homo sapiens, UniProt P11362)
[29] = target: Cyclin-dependent kinase 5 (Homo sapiens, UniProt Q00535);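 further: CDK5 measured as one member of a kinase profiling panel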
[30] = target: Vascular endothelial growth factor receptor 1 (Homo sapiens, UniProt P17948);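 further: measured within a kinome-wide profiling panel, FLT1 as the panel member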
[31] = target: Lymphokine-activated killer T-cell-originated protein kinase (Homo sapiens, UniProt Q96KB5);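 further: value comes from a kinase panel screen in which TOPK was one of the panel members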
[32] = target: Hepatocyte growth factor receptor (Homo sapiens, UniProt P08581);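 further: kinase panel profiling across the kinome, with MET as the panel member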
[33] = target: BDNF/NT-3 growth factors receptor (Homo sapiens, UniProt Q16620);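 further: NTRK2 measured as one member of a broad kinome-wide kinase profiling panel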
[34] = target: Mitogen-activated protein kinase kinase kinase kinase 2 (Homo sapiens, UniProt Q12851);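 further: measured as one member of a kinome-wide kinase panel, with MAP4K2 as the panel entry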
[35] = target: Tyrosine-protein kinase receptor UFO (Homo sapiens, UniProt P30530)
[36] = target: Ribosomal protein S6 kinase alpha-5 (Homo sapiens, UniProt O75582)
Sequence of Ribosomal protein S6 kinase alpha-5 (O75582 whole entry): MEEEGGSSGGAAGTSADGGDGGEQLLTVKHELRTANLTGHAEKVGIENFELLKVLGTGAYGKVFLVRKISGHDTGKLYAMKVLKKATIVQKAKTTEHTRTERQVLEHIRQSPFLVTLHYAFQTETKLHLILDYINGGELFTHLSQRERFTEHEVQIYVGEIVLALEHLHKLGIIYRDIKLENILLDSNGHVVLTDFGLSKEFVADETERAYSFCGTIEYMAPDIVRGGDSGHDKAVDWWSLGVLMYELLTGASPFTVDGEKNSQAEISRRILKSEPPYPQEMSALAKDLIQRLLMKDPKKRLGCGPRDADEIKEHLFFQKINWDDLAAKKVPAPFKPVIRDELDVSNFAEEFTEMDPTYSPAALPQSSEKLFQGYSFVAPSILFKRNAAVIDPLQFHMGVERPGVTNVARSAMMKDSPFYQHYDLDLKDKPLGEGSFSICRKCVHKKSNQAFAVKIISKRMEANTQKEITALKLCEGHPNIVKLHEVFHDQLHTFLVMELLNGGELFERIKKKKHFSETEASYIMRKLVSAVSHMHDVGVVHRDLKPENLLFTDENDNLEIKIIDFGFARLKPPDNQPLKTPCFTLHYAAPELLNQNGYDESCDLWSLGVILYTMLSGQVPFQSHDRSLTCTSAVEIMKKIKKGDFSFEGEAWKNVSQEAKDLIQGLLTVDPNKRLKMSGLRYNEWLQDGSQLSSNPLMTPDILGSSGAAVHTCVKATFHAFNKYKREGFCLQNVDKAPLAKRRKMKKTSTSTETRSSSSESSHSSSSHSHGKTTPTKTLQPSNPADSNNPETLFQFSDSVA

[37] = target: Tyrosine-protein kinase FRK (Homo sapiens, UniProt P42685);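 further: FRK tested as one member of a kinome panel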
[38] = target: Phosphorylase b kinase gamma catalytic chain, liver/testis isoform (Homo sapiens, UniProt P15735);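 further: PHKG2 measured as one member of a kinome-wide kinase panel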
Sequence of Phosphorylase b kinase gamma catalytic chain, liver/testis isoform (P15735 whole entry, canonical isoform): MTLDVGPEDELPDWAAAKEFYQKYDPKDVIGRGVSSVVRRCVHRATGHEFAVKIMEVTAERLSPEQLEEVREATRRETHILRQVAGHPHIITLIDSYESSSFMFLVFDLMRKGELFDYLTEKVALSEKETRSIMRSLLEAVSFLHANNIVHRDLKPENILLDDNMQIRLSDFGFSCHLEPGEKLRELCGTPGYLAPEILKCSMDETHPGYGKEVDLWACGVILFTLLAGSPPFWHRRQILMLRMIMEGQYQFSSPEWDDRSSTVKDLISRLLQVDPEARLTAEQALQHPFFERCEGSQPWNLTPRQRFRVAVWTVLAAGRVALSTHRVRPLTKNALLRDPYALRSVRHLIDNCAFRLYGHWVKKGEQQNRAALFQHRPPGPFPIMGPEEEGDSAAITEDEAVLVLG

[39] = target: Maternal embryonic leucine zipper kinase (Homo sapiens, UniProt Q14680)
[40] = target: Calcium/calmodulin-dependent protein kinase type II subunit delta (Homo sapiens, UniProt Q13557)
Sequence of Calcium/calmodulin-dependent protein kinase type II subunit delta (Q13557 whole entry): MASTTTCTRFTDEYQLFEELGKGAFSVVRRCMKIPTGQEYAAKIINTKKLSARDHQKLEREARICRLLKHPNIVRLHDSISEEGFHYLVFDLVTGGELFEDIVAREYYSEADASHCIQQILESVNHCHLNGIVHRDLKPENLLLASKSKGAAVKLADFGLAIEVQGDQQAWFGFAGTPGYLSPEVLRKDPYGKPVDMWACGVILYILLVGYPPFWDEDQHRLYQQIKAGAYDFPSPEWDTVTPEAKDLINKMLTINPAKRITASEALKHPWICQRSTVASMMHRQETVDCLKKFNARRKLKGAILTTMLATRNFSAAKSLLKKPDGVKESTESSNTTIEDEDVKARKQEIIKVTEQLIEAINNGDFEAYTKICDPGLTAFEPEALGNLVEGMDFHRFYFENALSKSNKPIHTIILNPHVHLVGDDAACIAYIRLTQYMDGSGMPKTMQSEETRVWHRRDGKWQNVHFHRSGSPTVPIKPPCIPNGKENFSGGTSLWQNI

[41] = target: Dual specificity tyrosine-phosphorylation-regulated kinase 1A (Homo sapiens, UniProt Q13627);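 further: measured against DYRK1A as one member of a broad kinome profiling panel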
[42] = target: Testis-specific serine/threonine-protein kinase 2 (Homo sapiens, UniProt Q96PF2);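 further: part of the Navigating the Kinome panel, target entry STK22B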
Sequence of Testis-specific serine/threonine-protein kinase 2 (Q96PF2 whole entry): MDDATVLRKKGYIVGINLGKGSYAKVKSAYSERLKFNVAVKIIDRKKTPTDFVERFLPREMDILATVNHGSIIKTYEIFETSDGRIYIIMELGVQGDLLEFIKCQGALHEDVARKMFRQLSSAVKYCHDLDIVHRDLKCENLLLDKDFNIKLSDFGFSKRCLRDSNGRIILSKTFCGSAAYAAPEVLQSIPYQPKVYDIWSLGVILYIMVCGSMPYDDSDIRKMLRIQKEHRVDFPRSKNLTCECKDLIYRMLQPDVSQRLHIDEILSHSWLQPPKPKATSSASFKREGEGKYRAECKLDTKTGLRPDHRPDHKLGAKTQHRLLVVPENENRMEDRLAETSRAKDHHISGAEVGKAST

Ki [1]: > 1580 nM (inactive)
Ki (Insulin receptor): > 5010 nM (inactive)
Ki [2]: 1580 nM (active)
Ki [3]: 126 nM (active)
Ki [4]: 631 nM (active)
Ki [5]: > 10000 nM (inactive)
Ki [6]: 1000 nM (active)
Ki [7]: 100 nM (active)
Ki [8]: > 1260 nM (inactive)
Ki [9]: 1260 nM (active)
Ki [10]: 631 nM (active)
Ki [11]: 398 nM (active)
Ki [12]: > 1580 nM (inactive)
Ki (SRSF protein kinase 1): 2000 nM (active)
Ki [13]: 2000 nM (active)
Ki (Ephrin type-A receptor 2): > 3160 nM (inactive)
Ki [14]: > 2000 nM (inactive)
Ki [15]: 6310 nM (active)
Ki [16]: > 1580 nM (inactive)
Ki (Misshapen-like kinase 1): 501 nM (active)
Ki [17]: > 2000 nM (inactive)
Ki [18]: > 2510 nM (inactive)
Ki [19]: > 1580 nM (inactive)
Ki [20]: > 2000 nM (inactive)
Ki [21]: > 1580 nM (inactive)
Ki [22]: 3160 nM (active)
Ki [23]: > 2510 nM (inactive)
Ki [24]: > 1580 nM (inactive)
Ki (LIM domain kinase 1): 3980 nM (active)
Ki [25]: > 2000 nM (inactive)
Ki [26]: 1580 nM (active)
Ki [27]: > 1580 nM (inactive)
Ki [28]: > 5010 nM (inactive)
Ki [29]: 794 nM (active)
Ki [30]: > 398 nM (inactive)
Ki [32]: 2510 nM (active)
Ki [33]: > 5010 nM (inactive)
Ki [34]: 501 nM (active)
Ki [35]: > 2000 nM (inactive)
Ki [36]: > 2000 nM (inactive)
Ki [37]: > 2510 nM (inactive)
Ki [38]: 3160 nM (active)
Ki [39]: > 1580 nM (inactive)
Ki [40]: 3160 nM (active)
Ki [41]: 100 nM (active)
Ki [42]: > 1580 nM (inactive)
Structure (SMILES): NC(=O)Cn1cc(-c2cc(-c3cc4ccccc4s3)c3[nH]ncc3c2)c2nc(N)ncc21
Ki [31]: > 10000 nM (inactive)
